According to US20160222014A1, “COMPOUNDS FOR REGULATING FAK AND/OR SRC PATHWAYS” (ASANA BIOSCIENCES, LLC, priority 2013, published 2016):
Values belong to the compound of their own block, whether it stands above or below them.

What was measured:
Format in all cases: biochemical
Recombinant Src enzyme = target: T1, Recombinant Src enzyme (Homo sapiens, UniProt P12931); assay: Src HTRF assay
T1 construct: purchased Millipore 14-326; host or cells: Sf21 insect cells
Experimental: Enzyme assay buffer, supplements, and compounds were prepared as described in the FAK HTRF assay.
Recombinant Src enzyme expressed in Sf21 insect cells was obtained (Millipore, Cat No. 14-326, Lot # D8CN006U-K). A 35 μM stock was used at a final concentration of 5 nM in the assay.
Tyk2 synthetic peptide-Biotinylated-N-terminal tag-[…]
A custom made substrate, a Tyk2 synthetic peptide, biotinylated with an N-terminal tag was obtained (Biopeptide and Sigma, Cat. No. 14918001 VC80021). A 100 μM stock was used at a final concentration of 0.5 μM in the assay.
A 10 mM stock in 100 μL enzyme assay buffer pH7.4 was prepared freshly and used at a final concentration of 10 μM in the assay.
Dasatinib (Bristol-Myers Squibb)
The assay procedure was the same as discussed above.

AURKB (Aurora B) enzyme = target: T2, AURKB (Aurora B) enzyme (Homo sapiens, UniProt Q96GD4); assay: Aurora B HTRF assay; conditions: read-out: AuroraB IC50
T2 construct: purchased Invitrogen PVR 130
Experimental: AURKB (Aurora B) enzyme was obtained (Invitrogen, Cat No. PVR 130, Lot No. 857013J). A 8.64 μM stock was used at a final concentration 5 nM in the assay.
Lance@Ultera Ulight-PLK (Ser137) peptide substrate
Peptide substrate was obtained from Perkin Elmer (Lot#1629793, TRF0110-M). A 5 μM stock was used at a final concentration of 50 nM in the assay.
10 mM stock prepared freshly as above, used at a final concentration of 30 μM in assay.
The plate was covered with aluminum foil, put on a shaker and incubated 1 h at rt.
Reference: Pfizer aurora inhibitor PF-03814735 was procured from Selleckchem: Cat# S2725
Using stock Lance detection buffer, 1× Lance detection buffer was prepared. • 1. 10× lance detection buffer was diluted to 1×, mixed well and 100 μL was removed, and was used to substitute with antibody and EDTA (for a total of 2200 μL). • 2. 88 μL of […] EDTA was added from 500 mM stock. • 3. 14 μL Europium labeled antibody (LANCE@ Ultra EU-Anti-P-PLK(Ser 137), TRF0203-D, Lot No. 1630351, Perkin Elmer) was added from 625 nM stock; required concentration was 2 nM in the assay. • 4. The buffer well was mixed and 20 μL was transferred to the each well in the assay plate. • 5. The solutions were incubated for 1 h at rt. • 6. The plate was read using MET-HTRF® protocol using Pherastar equipment.

recombinant human FAK1 = target: T3, recombinant human FAK1 (Homo sapiens, UniProt Q05397); assay: FAK1 HTRF assay
T3 construct: fused on or other part: N-terminal 6xHis tag
Summary of the method: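 IC50 values derive from HTRF % inhibition (ratio 665/620 nm, Eu–anti-phosphotyrosine 0.1 nM, SA-APC 12 nM). The kinase step ran 45 min at room temperature, pairing 10 nM His-FAK1(692–end) from baculovirus with 0.5 μM gastrin Tyr87 biotin-peptide and a reagent at 10 μM final, pH 7.4. Compound dilutions began at 10 μM.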

T2 sequence (Q96GD4 whole entry): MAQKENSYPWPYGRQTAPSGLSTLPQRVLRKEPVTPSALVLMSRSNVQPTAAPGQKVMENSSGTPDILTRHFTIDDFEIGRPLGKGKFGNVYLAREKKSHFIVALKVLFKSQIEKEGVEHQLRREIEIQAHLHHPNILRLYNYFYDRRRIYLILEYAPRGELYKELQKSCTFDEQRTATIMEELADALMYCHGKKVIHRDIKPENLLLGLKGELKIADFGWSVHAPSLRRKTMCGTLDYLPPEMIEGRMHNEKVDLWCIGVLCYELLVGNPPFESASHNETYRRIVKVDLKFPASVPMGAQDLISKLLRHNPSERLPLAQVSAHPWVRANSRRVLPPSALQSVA
T1 sequence (P12931 whole entry): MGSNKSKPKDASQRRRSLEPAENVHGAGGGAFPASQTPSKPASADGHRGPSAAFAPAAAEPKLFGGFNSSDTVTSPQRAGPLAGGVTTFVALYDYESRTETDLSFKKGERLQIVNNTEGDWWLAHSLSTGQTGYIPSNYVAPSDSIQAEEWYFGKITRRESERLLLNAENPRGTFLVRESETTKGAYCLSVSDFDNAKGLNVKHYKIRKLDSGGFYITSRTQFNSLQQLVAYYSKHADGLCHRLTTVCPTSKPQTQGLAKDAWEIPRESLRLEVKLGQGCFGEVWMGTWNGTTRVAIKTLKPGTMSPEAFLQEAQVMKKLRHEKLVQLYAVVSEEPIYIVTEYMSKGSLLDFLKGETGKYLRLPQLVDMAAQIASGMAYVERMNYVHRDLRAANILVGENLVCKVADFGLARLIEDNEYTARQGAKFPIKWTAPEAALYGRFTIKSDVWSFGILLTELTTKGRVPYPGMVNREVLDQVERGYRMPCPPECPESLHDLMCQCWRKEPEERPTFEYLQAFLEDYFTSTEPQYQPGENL
T3 sequence (Q05397 422-680 limits assumed): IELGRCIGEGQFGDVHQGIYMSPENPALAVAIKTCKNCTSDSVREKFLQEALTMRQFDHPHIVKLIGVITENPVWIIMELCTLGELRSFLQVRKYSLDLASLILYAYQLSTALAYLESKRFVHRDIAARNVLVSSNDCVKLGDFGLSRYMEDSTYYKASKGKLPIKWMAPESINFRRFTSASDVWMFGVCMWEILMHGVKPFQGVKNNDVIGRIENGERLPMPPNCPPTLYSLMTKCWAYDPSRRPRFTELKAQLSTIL

Compound: COc1cc(N2CCOCC2)ccc1Nc1cc2c(ccn2S(=O)(=O)c2cccc3cccnc23)cn1 [Example 401]
IC50 (Recombinant Src enzyme): > 1000 nM | IC50 (recombinant human FAK1): < 20 nM | IC50 (AURKB (Aurora B) enzyme): < 20 nM

Compound: CN(c1ncccc1CN1CC(C)(C)c2cnc(Nc3ccc(N4CCNCC4)cc3)nc21)S(C)(=O)=O [Example 437]
IC50 (Recombinant Src enzyme): > 1000 nM | IC50 (recombinant human FAK1): > 1000 nM | IC50 (AURKB (Aurora B) enzyme): > 1000 nM

Compound: COc1cc(N2CCN(C)CC2)ccc1Nc1ncc2c(n1)N(S(=O)(=O)c1cccc3cccnc13)CC2(C)C [Example 504]
IC50 (Recombinant Src enzyme): > 1000 nM | IC50 (recombinant human FAK1): < 20 nM | IC50 (AURKB (Aurora B) enzyme): > 1000 nM

Compound: O=S(=O)(c1cc(Cl)ccc1Cl)N1CC2(CC2)c2cnc(Nc3ccc(N4CCNCC4)cc3)nc21 [Example 510]
IC50 (Recombinant Src enzyme): > 1000 nM | IC50 (AURKB (Aurora B) enzyme): > 1000 nM

Compound: CN(c1ccccc1C(=O)N1CC(C)(C)c2cnc(Nc3ccc(N4CCNCC4)cc3)nc21)S(C)(=O)=O [Example 528]
IC50 (Recombinant Src enzyme): > 1000 nM | IC50 (recombinant human FAK1): > 1000 nM | IC50 (AURKB (Aurora B) enzyme): > 1000 nM

Compound: CC1(C)CN(S(=O)(=O)c2ccccc2C#N)c2cc(Nc3ccc(N4CCNCC4)cc3)ncc21 [Example 532]
IC50 (Recombinant Src enzyme): > 1000 nM | IC50 (AURKB (Aurora B) enzyme): > 1000 nM

Compound: CS(=O)(=O)N(CCN)c1ccccc1Cn1ccc2cnc(Nc3ccc(N4CCNCC4)cc3)nc21 [Example 558]
IC50 (Recombinant Src enzyme): > 1000 nM | IC50 (recombinant human FAK1): > 1000 nM | IC50 (AURKB (Aurora B) enzyme): > 1000 nM

Compound: COc1cc(N2CCC(N(C)C)CC2)ccc1Nc1ncc2ccn(Cc3ccccc3N(C)S(C)(=O)=O)c2n1 [Example 628]
IC50 (Recombinant Src enzyme): > 1000 nM | IC50 (AURKB (Aurora B) enzyme): > 1000 nM

Compound: COc1cc(N2CCN[C@@H](C)C2)ccc1Nc1ncc2ccn(Cc3cccnc3N(C)S(C)(=O)=O)c2n1 [Example 629]
IC50 (Recombinant Src enzyme): > 1000 nM | IC50 (AURKB (Aurora B) enzyme): > 1000 nM

Compound: COc1cc(N2CCC(N(C)C)CC2)ccc1Nc1ncc2ccn(Cc3cccnc3N(C)S(C)(=O)=O)c2n1 [Example 634]
IC50 (Recombinant Src enzyme): > 1000 nM | IC50 (AURKB (Aurora B) enzyme): > 1000 nM

Compound: COc1cc(N2CCNCC2)ccc1Nc1cc2c(cn1)C(C)(C)CN2S(=O)(=O)c1cccc2cccnc12 [Example 635]
IC50 (Recombinant Src enzyme): > 1000 nM | IC50 (recombinant human FAK1): < 20 nM | IC50 (AURKB (Aurora B) enzyme): > 1000 nM

Compound: CN(c1ncccc1Cn1cc(C#N)c2cnc(Nc3ccc(N4CCNCC4)cc3)nc21)S(C)(=O)=O [Example 732]
IC50 (Recombinant Src enzyme): > 1000 nM | IC50 (recombinant human FAK1): > 1000 nM

Compound: CN(c1ncccc1Cn1cc(C(N)=O)c2cnc(Nc3ccc(N4CCNCC4)cc3)nc21)S(C)(=O)=O [Example 734]
IC50 (Recombinant Src enzyme): > 1000 nM | IC50 (recombinant human FAK1): > 1000 nM

Compound: CN(C)C1CCN(c2ccc(Nc3ncc4c(n3)N(c3ccccc3NS(C)(=O)=O)CC4(C)C)cc2)CC1 [Example 784]
IC50 (Recombinant Src enzyme): > 1000 nM | IC50 (recombinant human FAK1): > 1000 nM

Compound: CN(C)C1CCN(c2ccc(Nc3nc4c(ccn4Cc4cccnc4N(C)S(C)(=O)=O)cc3C#N)cc2)CC1 [Example 785]
IC50 (Recombinant Src enzyme): > 1000 nM | IC50 (recombinant human FAK1): > 1000 nM

Compound: Cc1ccc(N(C)S(C)(=O)=O)c(Cn2ccc3cnc(Nc4ccc5c(c4)CC(=O)N5)nc32)c1 [Example 786]
IC50 (Recombinant Src enzyme): > 1000 nM | IC50 (recombinant human FAK1): < 20 nM

Compound: CC(=O)N(C)c1ccccc1Cn1ccc2cnc(Nc3ccc(N4CCN[C@H](C)C4)cc3)nc21 [Example 787]
IC50 (Recombinant Src enzyme): > 1000 nM | IC50 (recombinant human FAK1): > 1000 nM

Compound: CC(=O)N(C)c1ccccc1Cn1ccc2cnc(Nc3ccc(N4CCC(N(C)C)CC4)cc3)nc21 [Example 788]
IC50 (Recombinant Src enzyme): > 1000 nM | IC50 (recombinant human FAK1): > 1000 nM

Results, then the compound that gave them:

IC50 (Recombinant Src enzyme): > 1000 nM | IC50 (AURKB (Aurora B) enzyme): > 1000 nM
Compound: FC(F)Oc1ccccc1Cn1ccc2cnc(Nc3ccc4ncsc4c3)cc21 [Example 20]

IC50 (Recombinant Src enzyme): > 1000 nM | IC50 (AURKB (Aurora B) enzyme): < 20 nM
Compound: CN(c1cccc(Cn2ccc3cnc(Nc4ccc5c(c4)CCC(=O)N5)nc32)c1)S(C)(=O)=O [Example 50]

IC50 (Recombinant Src enzyme): > 1000 nM | IC50 (AURKB (Aurora B) enzyme): < 20 nM
Compound: CNS(=O)(=O)c1cccc(Cn2ccc3cnc(Nc4ccc5c(c4)CCC(=O)N5)nc32)c1 [Example 60]

IC50 (Recombinant Src enzyme): > 1000 nM | IC50 (AURKB (Aurora B) enzyme): > 1000 nM
Compound: CC(=O)Nc1cccc(Nc2cc3c(cn2)cnn3S(=O)(=O)c2ccccc2OC(F)(F)F)c1 [Example 86]

IC50 (Recombinant Src enzyme): > 1000 nM | IC50 (AURKB (Aurora B) enzyme): < 20 nM
Compound: Cc1nn(S(=O)(=O)c2ccccc2OC(F)(F)F)c2cc(Nc3ccc4c(c3)CCC(=O)N4)ncc12 [Example 90]

IC50 (Recombinant Src enzyme): > 1000 nM | IC50 (AURKB (Aurora B) enzyme): < 20 nM
Compound: O=c1[nH]c2ccc(Nc3ncc4ccn(S(=O)(=O)c5ccccc5OC(F)(F)F)c4n3)cc2[nH]1 [Example 93]

IC50 (Recombinant Src enzyme): > 1000 nM | IC50 (AURKB (Aurora B) enzyme): < 20 nM
Compound: CN(c1ncccc1Cn1ccc2cnc(Nc3ccc(N4CCNCC4=O)cc3)nc21)S(C)(=O)=O [Example 102]

IC50 (Recombinant Src enzyme): > 1000 nM | IC50 (AURKB (Aurora B) enzyme): < 20 nM
Compound: CN(c1ncccc1Cn1ccc2cnc(Nc3ccc(N4CCOCC4)cn3)nc21)S(C)(=O)=O [Example 107]

IC50 (Recombinant Src enzyme): > 1000 nM | IC50 (AURKB (Aurora B) enzyme): < 20 nM
Compound: CN(C)CCOc1cccc(Nc2cc3c(ccn3S(=O)(=O)c3ccccc3OC(F)(F)F)cn2)c1 [Example 126]

IC50 (Recombinant Src enzyme): < 20 nM | IC50 (recombinant human FAK1): < 20 nM | IC50 (AURKB (Aurora B) enzyme): < 20 nM
Compound: CN1C(=O)CCc2cc(Nc3ncc4ccn(Cc5cccnc5N(C)S(C)(=O)=O)c4n3)ccc21 [Example 136]

IC50 (Recombinant Src enzyme): > 1000 nM | IC50 (AURKB (Aurora B) enzyme): < 20 nM
Compound: COc1cccc(Nc2ncc3ccn(S(=O)(=O)c4ccccc4C#N)c3n2)c1 [Example 178]

IC50 (Recombinant Src enzyme): < 20 nM | IC50 (recombinant human FAK1): < 20 nM | IC50 (AURKB (Aurora B) enzyme): < 20 nM
Compound: Cc1cc(Nc2ncc3ccn(S(=O)(=O)c4cccc5cccnc45)c3n2)ccc1N1CCNCC1 [Example 196]

IC50 (Recombinant Src enzyme): < 20 nM | IC50 (recombinant human FAK1): < 20 nM | IC50 (AURKB (Aurora B) enzyme): < 20 nM
Compound: Cc1cc(Nc2ncc3ccn(S(=O)(=O)c4ccccc4C#N)c3n2)ccc1N1CCNCC1 [Example 212]

IC50 (Recombinant Src enzyme): < 20 nM | IC50 (recombinant human FAK1): < 20 nM | IC50 (AURKB (Aurora B) enzyme): < 20 nM
Compound: O=S(=O)(c1cccc2ccccc12)n1ccc2cnc(Nc3ccc(N4CCNCC4)cc3)nc21 [Example 219]

IC50 (Recombinant Src enzyme): > 1000 nM | IC50 (AURKB (Aurora B) enzyme): < 20 nM
Compound: CC(=O)Nc1ccc(Nc2cc3c(cn2)cnn3S(=O)(=O)c2cccc3cccnc23)cc1 [Example 315]

IC50 (Recombinant Src enzyme): > 1000 nM | IC50 (recombinant human FAK1): < 20 nM | IC50 (AURKB (Aurora B) enzyme): < 20 nM
Compound: COc1ccccc1S(=O)(=O)n1ccc2cnc(Nc3ccc(N4CCNCC4)cc3)cc21 [Example 343]

IC50 (Recombinant Src enzyme): > 1000 nM | IC50 (recombinant human FAK1): < 20 nM | IC50 (AURKB (Aurora B) enzyme): < 20 nM
Compound: O=S(=O)(c1cccc2cccnc12)n1ncc2cnc(Nc3ccc(N4CCC(O)CC4)cc3)cc21 [Example 345]

IC50 (Recombinant Src enzyme): > 1000 nM | IC50 (AURKB (Aurora B) enzyme): > 1000 nM
Compound: COc1cc(N2CCNCC2)ccc1Nc1cc2c(ccn2Cc2cccnc2N(C)S(C)(=O)=O)cn1 [Example 366]

IC50 (Recombinant Src enzyme): > 1000 nM | IC50 (AURKB (Aurora B) enzyme): < 20 nM
Compound: O=S(=O)(c1cccc2cccnc12)n1ncc2cnc(Nc3ccc(N4CC5CC4CN5)cc3)cc21 (centres unmarked) [Example 383]

IC50 (Recombinant Src enzyme): < 20 nM | IC50 (recombinant human FAK1): < 20 nM | IC50 (AURKB (Aurora B) enzyme): < 20 nM
Compound: COc1cc(Nc2ncc3ccn(Cc4ccccc4N(C)S(C)(=O)=O)c3n2)ccc1N1CCN(C)CC1 [Example 429]
